Where a name gives a salt, the structure may show the parent alone. Read-outs that look alike come from different tables or passages of the source.
Target: human σ1 receptor (Homo sapiens, UniProt Q99720)
Experiment: biochemical
Format: binding
Design: μ and σ1 dual binding: key to the marks not given beside the values
[1] = read-out: μ and σ1 dual binding

human σ1 receptor, sequence (Q99720 whole entry): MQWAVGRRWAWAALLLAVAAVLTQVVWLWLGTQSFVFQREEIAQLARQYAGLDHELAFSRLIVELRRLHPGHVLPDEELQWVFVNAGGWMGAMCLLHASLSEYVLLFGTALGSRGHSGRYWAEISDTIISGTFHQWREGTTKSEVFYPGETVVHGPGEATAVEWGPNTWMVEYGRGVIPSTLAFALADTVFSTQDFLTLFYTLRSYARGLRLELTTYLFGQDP

Row | SMILES | Ki [nM] | Ki [1] [nM] | further results
1 | COc1ccccc1CCN1CCC2(CC1)CN(c1ccccc1F)C(=O)C(C(C)C)O2 (stereo not drawn) [Example 137, 4-(2-fluorophenyl)-2-isopropyl-9-(2-methoxyphenethyl)-1-oxa-4,9-diazaspiro[5.5]undecan-3-one hydrochloride] | < 100 |  | 
2 | c1ccc(CN2CCOC3(CCN(CCc4ccccn4)CC3)C2)cc1 [Example 138, 4-benzyl-9-(2-(pyridin-2-yl)ethyl)-1-oxa-4,9-diazaspiro[5.5]undecane hydrochloride] |  | < 100 | 
3 | CC(C)=C1OC2(CCN(CCc3ccccn3)CC2)CN(c2ccccc2F)C1=O [Example 139] |  | > 500 | 
4 | CC1OC2(CCN(CCc3csc(NC(=O)OC(C)(C)C)n3)CC2)CN(c2ccccc2F)C1=O (stereo not drawn) [Example 140, tert-butyl (4-(2-(4-(2-fluorophenyl)-2-methyl-3-oxo-1-oxa-4,9-diazaspiro[5.5]undecan-9-yl)ethyl)thiazol-2-yl)carbamate] |  | > 500 | 
5 | CC(C)=C1OC2(CCN(CCc3scnc3C)CC2)CN(c2ccccc2F)C1=O [Example 141, 4-(2-fluorophenyl)-9-(2-(4-methylthiazol-5-yl)ethyl)-2-(propan-2-ylidene)-1-oxa-4,9-diazaspiro[5.5]undecan-3-one hydrochloride] |  | < 500 | 
6 | COCCC=C1OC2(CCN(CCc3ccccc3)CC2)CN(c2ccccc2F)C1=O [Example 142, 4-(2-fluorophenyl)-2-(3-methoxypropylidene)-9-phenethyl-1-oxa-4,9-diazaspiro[5.5]undecan-3-one] | < 500 |  | 
7 | CCOC(=O)c1cccc(CCN2CCC3(CC2)CN(c2ccccc2F)C(=O)C(C)O3)c1 (stereo not drawn) [Example 143, ethyl 3-(2-(4-(2-fluorophenyl)-2-methyl-3-oxo-1-oxa-4,9-diazaspiro[5.5]undecan-9-yl)ethyl)benzoate] |  | > 500 | 
8 | CC1OC2(CCN(CCC(=O)Nc3ccccc3)CC2)CN(c2ccccc2)C1=O (stereo not drawn) [Example 144, 3-(2-methyl-3-oxo-4-phenyl-1-oxa-4,9-diazaspiro[5.5]undecan-9-yl)-N-phenylpropanamide hydrochloride] |  | < 500 | 
9 | CC1OC2(CCN(CCOc3cccnc3)CC2)CN(c2ccccc2)C1=O (stereo not drawn) [Example 145, 2-methyl-4-phenyl-9-(2-(pyridin-3-yloxy)ethyl)-1-oxa-4,9-diazaspiro[5.5]undecan-3-one hydrochloride] |  | > 500 | 
10 | CC1OC2(CCN(CCN3CCCC3=O)CC2)CN(c2ccccc2)C1=O (stereo not drawn) [Example 146, 2-methyl-9-(2-(2-oxopyrrolidin-1-yl)ethyl)-4-phenyl-1-oxa-4,9-diazaspiro[5.5]undecan-3-one] |  | > 500 | 
11 | CC1OC2(CCN(CCc3cn[nH]c3)CC2)CN(c2ccccc2)C1=O (stereo not drawn) [Example 147, 9-(2-(1H-pyrazol-4-yl)ethyl)-2-methyl-4-phenyl-1-oxa-4,9-diazaspiro[5.5]undecan-3-one] |  | > 500 | 
12 | COc1ccc(CN2CC3(CCN(CCc4ccccc4F)CC3)OC3(CC3)C2=O)cc1 [Example 148, 8-(2-fluorophenethyl)-12-(4-methoxybenzyl)-4-oxa-8,12-diazadispiro[2.1.5.3]tridecan-13-one] |  | > 500 | 
13 | Cl.O=C1COC2(CCN(CCc3ccccc3)C2)CN1c1ccccc1 (stereo not drawn) [Example 149, 2-phenethyl-9-phenyl-6-oxa-2,9-diazaspiro[4.5]decan-8-one hydrochloride] |  |  | μ and σ1 dual binding: ++
14 | C[C@H]1OC2(CCN(C[C@H](O)c3ccccc3)CC2)CN(c2ccccc2)C1=O [Example 151a, (R)-9-((R)-2-hydroxy-2-phenylethyl)-2-methyl-4-phenyl-1-oxa-4,9-diazaspiro[5.5]undecan-3-one] | < 500 |  | 
15 | C[C@H]1OC2(CCN(C[C@@H](O)c3ccccc3)CC2)CN(c2ccccc2)C1=O [Example 151b, (R)-9-((S)-2-hydroxy-2-phenylethyl)-2-methyl-4-phenyl-1-oxa-4,9-diazaspiro[5.5]undecan-3-one] | < 500 |  | 
16 | C[C@@H]1OC2(CCN(C[C@@H](O)c3ccccc3)CC2)CN(c2ccccc2)C1=O [Example 151c, (S)-9-((S)-2-hydroxy-2-phenylethyl)-2-methyl-4-phenyl-1-oxa-4,9-diazaspiro[5.5]undecan-3-one] | < 500 |  | 
17 | C[C@@H]1OC2(CCN(C[C@H](O)c3ccccc3)CC2)CN(c2ccccc2)C1=O [Example 151d, (S)-9-((R)-2-hydroxy-2-phenylethyl)-2-methyl-4-phenyl-1-oxa-4,9-diazaspiro[5.5]undecan-3-one] | < 500 |  | 
18 | CC1OC2(CCN(CCc3ccccc3)CC2)CN(Cc2ccccc2)C1=O (stereo not drawn) [Example 152, 4-benzyl-2-methyl-9-phenethyl-1-oxa-4,9-diazaspiro[5.5]undecan-3-one hydrochloride] |  | < 100 | 
19 | O=C1COC2(CCN(CCc3ccccc3)CC2)CN1Cc1ccccc1 [Example 153, 4-benzyl-9-phenethyl-1-oxa-4,9-diazaspiro[5.5]undecan-3-one hydrochloride] |  | < 100 | 
20 | CC1OC2(CCN(CCc3ccccc3)CC2)CN(Cc2ccccc2F)C1=O (stereo not drawn) [Example 154, 4-(2-fluorobenzyl)-2-methyl-9-phenethyl-1-oxa-4,9-diazaspiro[5.5]undecan-3-one hydrochloride] |  | < 100 | 

Row | SMILES | Ki [nM] | Ki [1] [nM] | further results
21 | CC1OC2(CCN(CCc3ccccc3)CC2)CN(Cc2cccc(F)c2)C1=O (stereo not drawn) [Example 155, 4-(3-fluorobenzyl)-2-methyl-9-phenethyl-1-oxa-4,9-diazaspiro[5.5]undecan-3-one hydrochloride] | < 100 |  | 
22 | CC1OC2(CCN(CCc3ccccc3)CC2)CN(Cc2ccccn2)C1=O (stereo not drawn) [Example 157, 2-methyl-9-phenethyl-4-(pyridin-2-ylmethyl)-1-oxa-4,9-diazaspiro[5.5]undecan-3-one hydrochloride] | < 100 |  | 
23 | CC1OC2(CCN(CCc3ccccc3)CC2)CN(Cc2ccc(F)cc2)C1=O (stereo not drawn) [Example 158, 4-(4-fluorobenzyl)-2-methyl-9-phenethyl-1-oxa-4,9-diazaspiro[5.5]undecan-3-one hydrochloride] |  | < 100 | 
24 | CC1OC2(CCN(CCc3ccccc3)CC2)CN(Cc2cccnc2)C1=O (stereo not drawn) [Example 159, 2-methyl-9-phenethyl-4-(pyridin-3-ylmethyl)-1-oxa-4,9-diazaspiro[5.5]undecan-3-one hydrochloride] | < 100 |  | 
25 | CC1OC2(CCN(CCc3ccccc3)CC2)CN(Cc2nccs2)C1=O (stereo not drawn) [Example 160, 2-methyl-9-phenethyl-4-(thiazol-2-ylmethyl)-1-oxa-4,9-diazaspiro[5.5]undecan-3-one hydrochloride] | < 100 |  | 
26 | CC1OC2(CCN(CCc3ccccc3)CC2)CN(Cc2cncs2)C1=O (stereo not drawn) [Example 161, 2-methyl-9-phenethyl-4-(thiazol-5-ylmethyl)-1-oxa-4,9-diazaspiro[5.5]undecan-3-one hydrochloride] |  | < 500 | 
27 | CC1OC2(CCN(CCc3ccccc3)CC2)CN(Cc2ccncc2)C1=O (stereo not drawn) [Example 162, 2-methyl-9-phenethyl-4-(pyridin-4-ylmethyl)-1-oxa-4,9-diazaspiro[5.5]undecan-3-one] |  | < 500 | 
28 | CC1OC2(CCN(CCc3ccccc3)CC2)CN(CC2CCOCC2)C1=O.Cl (stereo not drawn) [Example 163, 2-methyl-9-phenethyl-4-((tetrahydro-2H-pyran-4-yl)methyl)-1-oxa-4,9-diazaspiro[5.5]undecan-3-one hydrochloride] |  |  | μ and σ1 dual binding: ++
29 | CC1OC2(CCN(CCc3ccccc3)CC2)CN(Cc2cscn2)C1=O (stereo not drawn) [Example 164, 2-methyl-9-phenethyl-4-(thiazol-4-ylmethyl)-1-oxa-4,9-diazaspiro[5.5]undecan-3-one] |  | < 100 | 
30 | O=C1COC2(CCN(CCc3ccccc3)CC2)CN1Cc1ccncc1 [Example 165, 9-phenethyl-4-(pyridin-4-ylmethyl)-1-oxa-4,9-diazaspiro[5.5]undecan-3-one] |  |  | μ and σ1 dual binding (combined class from Ki-σ1 (human σ1 receptor, A1) and Ki-μ (human μ-opioid receptor, A2) radioligand binding): ++
31 | COc1cccc(CN2CC3(CCN(CCc4ccccc4)CC3)OCC2=O)c1 [Example 166, 4-(3-methoxybenzyl)-9-phenethyl-1-oxa-4,9-diazaspiro[5.5]undecan-3-one hydrochloride] |  | < 500 | 
32 | O=C1COC2(CCN(CCc3ccccc3)CC2)CN1Cc1cscn1 [Example 167, 9-phenethyl-4-(thiazol-4-ylmethyl)-1-oxa-4,9-diazaspiro[5.5]undecan-3-one hydrochloride] |  | < 100 | 
33 | Cl.O=C1COC2(CCN(CCc3ccccc3)CC2)CN1Cc1nccn1Cc1ccccc1 [Example 168, 4-((1-benzyl-1H-imidazol-2-yl)methyl)-9-phenethyl-1-oxa-4,9-diazaspiro[5.5]undecan-3-one hydrochloride] |  |  | μ and σ1 dual binding: ++
34 | Cl.O=C1COC2(CCN(CCc3ccccc3)CC2)CN1CCc1ccccn1 [Example 169, 9-phenethyl-4-(2-(pyridin-2-yl)ethyl)-1-oxa-4,9-diazaspiro[5.5]undecan-3-one hydrochloride] |  |  | μ and σ1 dual binding: ++
35 | CC1OC2(CCN(CCc3ccccc3)CC2)CN(CC(=O)N2CCOCC2)C1=O (stereo not drawn) [Example 170, 2-methyl-4-(2-morpholino-2-oxoethyl)-9-phenethyl-1-oxa-4,9-diazaspiro[5.5]undecan-3-one hydrochloride] |  | > 500 | 
36 | CC1OC2(CCN(CCc3ccccc3)CC2)CN(Cc2ccn(C)n2)C1=O (stereo not drawn) [Example 171, 2-methyl-4-((1-methyl-1H-pyrazol-3-yl)methyl)-9-phenethyl-1-oxa-4,9-diazaspiro[5.5]undecan-3-one] | < 500 |  | 
37 | CC1OC2(CCN(CCc3ccccc3)CC2)CN(Cc2nccn2C)C1=O.Cl (stereo not drawn) [Example 172, 2-methyl-4-((1-methyl-1H-imidazol-2-yl)methyl)-9-phenethyl-1-oxa-4,9-diazaspiro[5.5]undecan-3-one hydrochloride] |  |  | μ and σ1 dual binding: ++
38 | CC1OC2(CCN(CCc3ccccc3)CC2)CN(Cc2ncccc2F)C1=O (stereo not drawn) [Example 173, 4-((3-fluoropyridin-2-yl)methyl)-2-methyl-9-phenethyl-1-oxa-4,9-diazaspiro[5.5]undecan-3-one] |  | < 100 | 
39 | CC1OC2(CCN(CCc3ccccc3)CC2)CN(Cc2cccc(C(F)(F)F)n2)C1=O (stereo not drawn) [Example 174, 2-methyl-9-phenethyl-4-((6-(trifluoromethyl)pyridin-2-yl)methyl)-1-oxa-4,9-diazaspiro[5.5]undecan-3-one hydrochloride] | < 100 |  | 
